Patent publication US20120283293A1, “Methods of neuroprotection involving Prostaglandin E2 EP4 (PGE2 EP4) receptor activation” (The Board of Trustees of the Leland Stanford Junior …, priority 2011, published 2012)

Columns and labels:
BV-2 cells = test: qPCR of pro-inflammatory gene expression in LPS-stimulated BV-2 cells; format: cell-based, murine; details: LPS 10 ng/ml, 6 h
Description: Murine microglial-like BV-2 cells were grown in DMEM medium supplemented with 10% heat-inactivated fetal bovine serum (HyClone, Logan, Utah) and 100 units/ml each of penicillin and streptomycin and were maintained at 37° C. in a humidified atmosphere containing 5% CO2. For primary microglial cultures, cerebral cortices were isolated from postnatal day 2 Sprague-Dawley rat pups obtained from Charles River Laboratories International, Inc. (Davis, Calif.). Tissues were minced and incubated in 0.25% trypsin-EDTA, mechanically triturated in DMEM/F-12 with 10% FBS, and plated on poly-L-lysine-coated […]. Cultures were maintained for 14 days with media changes every 4 days. […]
(§1) qPCR was carried out as previously described (Liang et al., 2008). […] The mRNA level for each target gene was quantified by SYBR Green-based qPCR using the QuantiTect SYBR Green PCR kit (Qiagen). […] Quantification was performed using the standard curve method. […]
Inflammatory stimuli such as LPS can activate microglia through the CD14/TLR4 receptor complex and induce the expression of pro-inflammatory enzymes and cytokines (Fassbender et al., 2004; Walter et al., 2007). […] BV-2 cells were treated with LPS (10 ng/ml) in the presence or absence of the selective EP4 agonist AE1-329 (1 μM) for 6 h, and pro-inflammatory gene expression was measured using qPCR (see FIG. 2). […]

[1] = test system: hippocampus of LPS-treated mice; test: LPS-induced hippocampal pro-inflammatory gene response in mice (qPCR, microglial morphology); format: in vivo, mouse
Description: The murine in vivo studies were conducted in accordance with the National Institutes of Health guidelines for the use of experimental animals and protocols were approved by the Institutional Animal Care and Use Committee. C57B6 EP4 floxed mice (Schneider et al., 2004) were kindly provided by Drs. Richard and Matthew Breyer (Vanderbilt University School of Medicine, Nashville, Tenn.), and C57B6 Cd11bCre mice (Boillee et al., 2006) were kindly provided by Dr. G. Kollias (Alexander Fleming Biomedical Sciences Research Center, Vari, Greece) and Dr. Donald Cleveland (UCSD, San Diego, Calif.). All mice were housed in an environment controlled for lighting (12 hour light/dark cycle), temperature, and humidity, with food and water available ad libitum. Cd11bCre:EP4f/f and Cd11bCre:EP4+/+ mice were generated by serial crosses of C57B6 Cd11bCre and EP4f/f and EP4+/+ lines. Male Cd11bCre: EP4f/f and Cd11bCre: EP4+/+ mice were treated with either saline or LPS (5 mg/kg intraperitoneally: n=5-8 per group, 13 months of age). 24 hours after injection, mice were euthanized and brain tissue was harvested and frozen at −80° C. For pharmacological experiments, C57B6 male mice (Jackson Laboratories, Bar Harbor, Me.; n=7 or 8 per group) received an injection of saline or LPS (5 mg/kg, i.p.+/−vehicle or AE1-329 ([…]) (Qin et al., 2007; Nagamatsu et al., 2006). Mice were euthanized 6 hours later, and brain tissue was harvested and frozen at −80° C. For collection of plasma, C57B6 male mice (n=5 per group) received an injection of saline or LPS (5 mg/kg, i.p.)+/−AE1-329 ([…] s.c.) or vehicle. Mice were deeply anesthetized with isoflurane at 3 h and blood was collected in a 1-ml syringe pre-coated with EDTA (250 mM) and placed in EDTA coated tubes. […]
as §1

[2] = mice, LPS 5 mg/kg i.p., AE1-329 300 μg/kg s.c., 6 hours

## COCc1ccccc1CC[C@H](O)/C=C/[C@H]1[C@H](O)CC(=O)[C@@H]1SCCCSCC(=O)O [AE1-329]
BV-2 cells; AE1-329 1 μM, qPCR
  LPS-induced mRNA of COX-2, iNOS, gp91phox, TNF-α, IL-1β and IL-6: significantly blunted the induction of these genes
BV-2 cells; co-stimulation with AE1-329 1 μM
  IL-10 mRNA expression: significantly induced expression
[1]; [2]
  LPS-induced COX-2, iNOS, TNF-α, IL-6 and IL-1β mRNA levels in hippocampus: significantly attenuated
  hippocampal expression of NADPH oxidase subunits gp91phox, p67phox and p47phox: trend toward decreased expression
[1]; mouse hippocampal CA1, 6 hours after LPS + AE1-329
  microglial morphological changes in response to LPS (Iba1 staining): modestly decreased
